Data set [1] is described as follows: Antioxidant activity assessed as DPPH radical scavenging activity after 30 mins. It counts as physicochemical. A general note: The DPPH test is a chemical assay of radical scavenging.
Data set [2] can be described thus: Antioxidant activity assessed as ABTS radical scavenging activity after 6 mins. It counts as physicochemical.
Data set [3] in a line: Antioxidant activity assessed as reduction of Fe3+ to Fe2+ after 20 mins. It counts as physicochemical.
A short description of data set [4]: Cytotoxicity against rat PC12 cells assessed as cell viability at 30 uM after 24 hrs by MTT assay. It counts as cell-based. The settings on record: pc-12, 24 h.
Data set [5] can be described thus: Cytotoxicity against rat PC12 cells assessed as cell viability at 75 uM after 24 hrs by MTT assay relative to control. It counts as cell-based. Conditions: pc-12, 24 h. A general note: Tetrazolium dyes change colour on reduction, which living cells bring about.
The nature of data set [6]: Cytotoxicity against rat PC12 cells assessed as cell viability at 150 uM after 24 hrs by MTT assay relative to control. It counts as cell-based. The settings on record: pc-12, 24 h.
Data set [7] relates to PC-12. Kind of data set: (§1) Neuroprotective activity against amyloid beta (25 to 35)-induced toxicity in rat PC12 cells assessed as increase in cell viability at 30 uM after 24 hrs by MTT assay relative to control. It counts as functional.
For data set [8], the system named is PC-12. Nature of the data set: (§2) Neuroprotective activity against amyloid beta (25 to 35)-induced toxicity in rat PC12 cells assessed as increase in cell viability at 75 uM after 24 hrs by MTT assay relative to control. It counts as functional.
A short description of data set [9]: as §1. It counts as functional, PC-12.
Data set [10] is described as follows: as §2. It counts as functional, PC-12.
Data set [11] concerns PC-12. Kind of data set: Neuroprotective activity against amyloid beta (25 to 35)-induced toxicity in rat PC12 cells assessed as increase in cell viability after 24 hrs by MTT assay. It counts as functional, cell-based.

Values after ≈ are worked out from the molar mass of the structure shown. Active and inactive are the calls of the source. The calls are words filed in the database; no cut-off is given here.

As a reminder, the IC50 is the concentration that gives 50% inhibition. Consider `O=C1C=C(c2ccc(O)cc2O[C@@H]2O[C@H](CO)[C@@H](O)[C@H](O)[C@H]2O)C(Cc2ccc(O)cc2)O1` (some centres undefined), for which the IC50 in data set [1] was 21.43 µg/mL (≈ 46.5 µM); in data set [2], 46.72 µg/mL (≈ 101 µM); in data set [3] it was 39.81 µg/mL (≈ 86.5 µM). Besides, the Activity entry in data set [4] is given as “Non-toxic”; in [5] it was “Non-toxic”; in data set [6], “Toxic”. Also, the outcome in data set [7] and in data set [8] was inactive.

On to `COc1ccc2c(c1)O[C@H]1c3ccc(O)cc3OC[C@@H]21`, for which the IC50 is 45.91 µg/mL (≈ 170 µM) in data set [1], 86.29 µg/mL (≈ 319 µM) in data set [2] and 82.37 µg/mL (≈ 305 µM) in [3]. Moreover, the Activity entry in data set [4] is “Non-toxic”; in data set [5], “Non-toxic”; in data set [6], “Toxic”; in data set [9] it was 18%; in data set [10], 30%; in data set [11] it was “Dose-dependent effect”.

As for `O=c1c(O)c(-c2ccc(O)c(O)c2)oc2cc(O)cc(O)c12` [QUERCETIN], the IC50 in data set [1] turned out to be 4.89 µg/mL (≈ 16.2 µM); in data set [2], 6.94 µg/mL (≈ 23 µM).

Take `O=C1C=C(c2ccc(O)cc2O)C(Cc2ccc(O)cc2)O1` (centres undefined): the IC50 was found to be 19.53 µg/mL (≈ 65.5 µM) in [1], 28.29 µg/mL (≈ 94.8 µM) in data set [2] and 38.52 µg/mL (≈ 129 µM) in [3]. Besides, the Activity entry was “Non-toxic” in data set [4], “Toxic” in [5] and “Toxic” in [6]. Moreover, the outcome in [7] was inactive.

Consider `COc1ccc(C2=CC(=O)OC2Cc2ccc(O)cc2)c(O[C@@H]2O[C@H](CO)[C@@H](O)[C@H](O)[C@H]2O)c1` (some centres undefined), for which the IC50 in data set [1] came out at 25.67 µg/mL (≈ 54.1 µM); in data set [2], 61.39 µg/mL (≈ 129 µM); in [3], 46.93 µg/mL (≈ 98.9 µM). In addition, the Activity entry in data set [4] is “Non-toxic”; in data set [5], “Toxic”; in [6], “Toxic”. For the same molecule, in data set [7], the outcome was inactive.

In the case of `OC[C@H]1O[C@@H](Oc2ccc3c(c2)OCC2c4cc5c(cc4OC32)OCO5)[C@H](O)[C@@H](O)[C@@H]1O` (some centres undefined), the IC50 was found to be 28.06 µg/mL (≈ 62.9 µM) in [1], 63.21 µg/mL (≈ 142 µM) in [2] and 70.37 µg/mL (≈ 158 µM) in [3]. Moreover, the values for the Activity entry in data set [4], in [5] and in [6] were “Non-toxic”, “Toxic” and “Toxic”, respectively. Moreover, in data set [7], the result was inactive.

As for `COc1cc(O[C@@H]2O[C@H](CO)[C@@H](O)[C@H](O)[C@H]2O)c(O)cc1-c1coc2cc(O)ccc2c1=O`, the IC50 in data set [1] turned out to be 20.45 µg/mL (≈ 44.2 µM).

With `Cc1cc(C(C)(C)C)c(O)c(C(C)(C)C)c1` [BUTYLATED HYDROXYTOLUENE], the values for the IC50 in data set [1] and in data set [3] were 9.23 µg/mL (≈ 41.9 µM) and 41.64 µg/mL (≈ 189 µM), respectively.

Consider `O=C(O)CC(=O)OC[C@H]1O[C@@H](Oc2ccc3c(c2)OCC2c4cc5c(cc4OC32)OCO5)[C@H](O)[C@@H](O)[C@@H]1O` (some centres undefined), for which the results for the IC50 in [1], in data set [2] and in [3] were 25.93 µg/mL (≈ 48.7 µM), 60.64 µg/mL (≈ 114 µM) and 64.31 µg/mL (≈ 121 µM), respectively.

For the molecule `COc1ccc(-c2coc3cc(O)ccc3c2=O)cc1` [FORMONONETIN], the results for the IC50 in [1], in [2] and in [3] were 43.51 µg/mL (≈ 162 µM), 77.42 µg/mL (≈ 289 µM) and 62.57 µg/mL (≈ 233 µM), respectively.

Take `Oc1ccc2c(c1)OC[C@H]1c3cc4c(cc3O[C@@H]21)OCO4` [MAACKIAIN]: in data set [1], the IC50 turned out to be 24.48 µg/mL (≈ 86.1 µM). Further, the Activity result in data set [4] was “Non-toxic”; in data set [5], “Non-toxic”; in data set [6], “Toxic”; in [9] it was 5%; in data set [10], 15%; in data set [11], “Dose-dependent effect”.

Turning to `COc1ccc(-c2coc3cc(O[C@@H]4O[C@H](CO)[C@@H](O)[C@H](O)[C@H]4O)ccc3c2=O)cc1` [ONONIN], the IC50 in data set [1] stood at 34.17 µg/mL (≈ 79.4 µM); in data set [2], 71.3 µg/mL (≈ 166 µM); in data set [3], 57.21 µg/mL (≈ 133 µM).

The values are drawn from ChEMBL document CHEMBL3608220, “Isolation and structure elucidation of bioactive compounds from the roots of the Tunisian Ononis angustissima L” (Bioorg Med Chem Lett, 2015).
